{"source": "paper PMC4300089", "about": "“Structure-Guided Design of Selective Epac1 and Epac2 Agonists” (PLoS Biology, 2015)", "assay_type_in_all_cases": "biochemical", "key": {"PKA-Iα": {"biological_target": "T1, PKA-Iα (Homo sapiens, UniProt P10644)", "T1 construct": "made in house", "assay": "PKA activity assay (coupled spectrophotometric, Kemptide), PKA-Iα", "details": "for A (PKA activity): PKAIα", "description": "(§1) The recombinant human PKA catalytic subunit (Cα1) and the four human PKA regulatory subunits (RIα, RIβ, RIIα, RIIβ) were expressed, purified, and characterized as described. […] PKA holoenzymes were formed by mixing the R- and C-subunit at a molar ratio of 1.2:1 and extensive dialysis against 20 mM MOPS (pH 7.0), 150 mM NaCl, 2.5 mM β-mercaptoethanol, supplemented with 1 mM ATP and 10 mM MgCl2 for PKA-I at 4°C overnight. PKA holoenzymes were used at about 20 nM for the activation assay. The apparent activation constants (Kact) were determined by fitting the concentration-dependent activity to a sigmoid dose-response model."}, "Epac2^Δ280,K450E": {"biological_target": "T2, Epac2^Δ280,K450E (Mus musculus, UniProt Q9EQZ6, K468E)", "T2 construct": "made in house", "T2 sequence (Q9EQZ6 281-993 isoform Q9EQZ6-3 K450E)": "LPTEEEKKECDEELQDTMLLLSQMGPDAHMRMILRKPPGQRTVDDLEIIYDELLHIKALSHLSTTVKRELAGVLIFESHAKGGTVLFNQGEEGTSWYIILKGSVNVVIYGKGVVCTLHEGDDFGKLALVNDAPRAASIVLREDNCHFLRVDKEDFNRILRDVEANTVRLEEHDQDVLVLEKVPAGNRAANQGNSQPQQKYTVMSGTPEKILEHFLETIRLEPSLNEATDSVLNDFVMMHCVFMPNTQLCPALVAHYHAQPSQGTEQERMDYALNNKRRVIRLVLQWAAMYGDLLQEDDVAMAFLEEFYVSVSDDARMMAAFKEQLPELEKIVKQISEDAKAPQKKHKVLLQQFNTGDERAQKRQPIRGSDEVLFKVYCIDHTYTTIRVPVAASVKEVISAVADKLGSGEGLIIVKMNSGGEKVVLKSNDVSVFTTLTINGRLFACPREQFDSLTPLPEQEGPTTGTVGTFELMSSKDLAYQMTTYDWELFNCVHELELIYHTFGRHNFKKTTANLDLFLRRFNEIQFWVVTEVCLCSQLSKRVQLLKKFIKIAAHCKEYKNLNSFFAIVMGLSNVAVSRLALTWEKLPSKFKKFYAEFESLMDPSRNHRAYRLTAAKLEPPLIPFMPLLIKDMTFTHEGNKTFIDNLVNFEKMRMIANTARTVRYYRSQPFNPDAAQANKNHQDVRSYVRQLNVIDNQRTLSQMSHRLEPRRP", "assay": "Epac activation assay, Epac2 K450E mutant", "description": "(§2) Murine Epac2 was used as all previous structural studies were performed with it.\n(§3) The activity of Epac was determined by a fluorescence assay. […] The fluorescence intensity of Rap1B•mGDP is approximately twice that of free mGDP, and thus, nucleotide exchange can be observed as a decay in fluorescence upon the addition of excess unlabeled GDP."}, "Epac2^Δ280": {"biological_target": "T3, Epac2^Δ280 (Mus musculus, UniProt Q9EQZ6)", "T3 construct": "made in house", "T3 sequence (Q9EQZ6 281-993 isoform Q9EQZ6-3)": "T2 sequence (Q9EQZ6 281-993 isoform Q9EQZ6-3 K450E) with E170K", "assay": "Epac activation assay (Rap1B•mGDP fluorescence nucleotide exchange), Epac2^Δ280", "description": "as §2, §3"}, "PKA-IIα": {"biological_target": "T4, PKA-IIα (Homo sapiens, UniProt P13861)", "T4 construct": "made in house", "T4 sequence (P13861 whole entry)": "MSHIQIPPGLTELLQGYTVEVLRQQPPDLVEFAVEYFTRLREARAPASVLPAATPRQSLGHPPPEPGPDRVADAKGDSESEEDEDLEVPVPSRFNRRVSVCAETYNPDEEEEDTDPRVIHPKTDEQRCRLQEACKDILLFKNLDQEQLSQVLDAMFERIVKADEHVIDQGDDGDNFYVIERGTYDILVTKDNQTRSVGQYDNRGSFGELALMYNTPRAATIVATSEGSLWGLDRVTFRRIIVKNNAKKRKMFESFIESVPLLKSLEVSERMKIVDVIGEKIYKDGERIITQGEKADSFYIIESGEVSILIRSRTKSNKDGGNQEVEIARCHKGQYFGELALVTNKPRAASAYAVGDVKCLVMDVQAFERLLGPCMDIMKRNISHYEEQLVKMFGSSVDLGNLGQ", "assay": "PKA activity assay, PKA-IIα", "details": "for A (PKA activity): PKAIIα", "description": "as §1"}}, "note": "Substitutions are numbered along the chain they refer to."}
{"smiles": "Nc1ncnc2c1nc(SCc1ccccc1)n2[C@@H]1O[C@@H]2CO[P@](O)(=S)O[C@H]2[C@H]1O", "note": "[S-220, Sp-8-BnT-cAMPS]", "values": [{"measurement": "Kact compared to cAMP (times higher)", "setting": "PKA-Iα; PKA-Iα", "result": "three to eight times higher"}, {"measurement": "EC50", "setting": "PKA-Iα; PKA-Iα, read-out: Kact", "result": 290, "unit": "nM"}, {"measurement": "A (PKA activity)", "setting": "PKA-Iα; concentration 1 μM", "result": "1.97E+01", "unit": "U/mg"}, {"measurement": "A (PKA activity)", "setting": "PKA-Iα; concentration 1.00E+01 μM", "result": "2.59E+01", "unit": "U/mg"}, {"measurement": "A (PKA activity)", "setting": "PKA-Iα; concentration 1.00E-01 μM", "result": 9.4227, "unit": "U/mg"}, {"measurement": "A (PKA activity)", "setting": "PKA-Iα; concentration 1.00E-02 μM", "result": 3.6309, "unit": "U/mg"}, {"measurement": "A (PKA activity)", "setting": "PKA-Iα; concentration 1.00E-03 μM", "result": 3.7632, "unit": "U/mg"}, {"measurement": "A (PKA activity)", "setting": "PKA-Iα; concentration 1.00E-05 μM", "result": 3.6309, "unit": "U/mg"}, {"measurement": "A (PKA activity)", "setting": "PKA-Iα; concentration 2.50E+02 μM", "result": "2.40E+01", "unit": "U/mg"}, {"measurement": "A (PKA activity)", "setting": "PKA-Iα; concentration 2.50E-01 μM", "result": "1.33E+01", "unit": "U/mg"}, {"measurement": "A (PKA activity)", "setting": "PKA-Iα; concentration 5.00E+01 μM", "result": "2.52E+01", "unit": "U/mg"}, {"measurement": "kobs", "setting": "Epac2^Δ280,K450E; 0.001 μM compound", "result": "3.4e-05", "unit": "s⁻¹"}, {"measurement": "kobs", "setting": "Epac2^Δ280,K450E; 0.003 μM compound", "result": "4.1e-05", "unit": "s⁻¹"}, {"measurement": "kobs", "setting": "Epac2^Δ280,K450E; 0.005 μM compound", "result": "4.7e-05", "unit": "s⁻¹"}, {"measurement": "kobs", "setting": "Epac2^Δ280,K450E; 0.008 μM compound", "result": "5.6e-05", "unit": "s⁻¹"}, {"measurement": "kobs", "setting": "Epac2^Δ280,K450E; 0.01 μM compound", "result": "7.9e-05", "unit": "s⁻¹"}, {"measurement": "kobs", "setting": "Epac2^Δ280,K450E; 0.03 μM compound", "result": 0.000149, "unit": "s⁻¹"}, {"measurement": "kobs", "setting": "Epac2^Δ280,K450E; 0.04 μM compound", "result": 0.000174, "unit": "s⁻¹"}, {"measurement": "kobs", "setting": "Epac2^Δ280,K450E; 0.05 μM compound", "result": 0.000201, "unit": "s⁻¹"}, {"measurement": "kobs", "setting": "Epac2^Δ280,K450E; 0.06 μM compound", "result": 0.000239, "unit": "s⁻¹"}, {"measurement": "kobs", "setting": "Epac2^Δ280,K450E; 0.07 μM compound", "result": 0.000269, "unit": "s⁻¹"}, {"measurement": "kobs", "setting": "Epac2^Δ280,K450E; 0.08 μM compound", "result": 0.000291, "unit": "s⁻¹"}, {"measurement": "kobs", "setting": "Epac2^Δ280,K450E; 0.1 μM compound", "result": 0.000329, "unit": "s⁻¹"}, {"measurement": "kobs", "setting": "Epac2^Δ280,K450E; 0.2 μM compound", "result": 0.000621, "unit": "s⁻¹"}, {"measurement": "kobs", "setting": "Epac2^Δ280,K450E; 0.3 μM compound", "result": 0.000717, "unit": "s⁻¹"}, {"measurement": "kobs", "setting": "Epac2^Δ280,K450E; 0.4 μM compound", "result": 0.000786, "unit": "s⁻¹"}, {"measurement": "kobs", "setting": "Epac2^Δ280,K450E; 0.5 μM compound", "result": 0.000805, "unit": "s⁻¹"}, {"measurement": "kobs", "setting": "Epac2^Δ280,K450E; 0.6 μM compound", "result": 0.000891, "unit": "s⁻¹"}, {"measurement": "kobs", "setting": "Epac2^Δ280,K450E; 0.7 μM compound", "result": 0.000938, "unit": "s⁻¹"}, {"measurement": "kobs", "setting": "Epac2^Δ280,K450E; 0.8 μM compound", "result": 0.000942, "unit": "s⁻¹"}, {"measurement": "kobs", "setting": "Epac2^Δ280,K450E; 1 μM compound", "result": 0.000907, "unit": "s⁻¹"}, {"measurement": "kobs", "setting": "Epac2^Δ280,K450E; 2 μM compound", "result": 0.00111, "unit": "s⁻¹"}, {"measurement": "kobs", "setting": "Epac2^Δ280,K450E; 3 μM compound", "result": 0.00113, "unit": "s⁻¹"}, {"measurement": "kobs", "setting": "Epac2^Δ280,K450E; 4 μM compound", "result": 0.00112, "unit": "s⁻¹"}, {"measurement": "kobs", "setting": "Epac2^Δ280,K450E; 5 μM compound", "result": 0.00108, "unit": "s⁻¹"}, {"measurement": "kobs", "setting": "Epac2^Δ280,K450E; 6 μM compound", "result": 0.00112, "unit": "s⁻¹"}, {"measurement": "kobs", "setting": "Epac2^Δ280,K450E; 7 μM compound", "result": 0.00112, "unit": "s⁻¹"}, {"measurement": "kobs", "setting": "Epac2^Δ280,K450E; 8 μM compound", "result": 0.00112, "unit": "s⁻¹"}, {"measurement": "kobs", "setting": "Epac2^Δ280,K450E; 10 μM compound", "result": 0.00104, "unit": "s⁻¹"}, {"measurement": "kobs", "setting": "Epac2^Δ280; 0.04 μM compound", "result": 0.000468, "unit": "s⁻¹"}, {"measurement": "kobs", "setting": "Epac2^Δ280; 0.05 μM compound", "result": 0.000508, "unit": "s⁻¹"}, {"measurement": "kobs", "setting": "Epac2^Δ280; 0.06 μM compound", "result": 0.000631, "unit": "s⁻¹"}, {"measurement": "kobs", "setting": "Epac2^Δ280; 0.07 μM compound", "result": 0.000864, "unit": "s⁻¹"}, {"measurement": "kobs", "setting": "Epac2^Δ280; 0.08 μM compound", "result": 0.000721, "unit": "s⁻¹"}, {"measurement": "kobs", "setting": "Epac2^Δ280; 0.1 μM compound", "result": 0.000827, "unit": "s⁻¹"}, {"measurement": "kobs", "setting": "Epac2^Δ280; 0.2 μM compound", "result": 0.00131, "unit": "s⁻¹"}, {"measurement": "kobs", "setting": "Epac2^Δ280; 0.3 μM compound", "result": 0.00149, "unit": "s⁻¹"}, {"measurement": "kobs", "setting": "Epac2^Δ280; 0.4 μM compound", "result": 0.00167, "unit": "s⁻¹"}, {"measurement": "kobs", "setting": "Epac2^Δ280; 0.5 μM compound", "result": 0.00155, "unit": "s⁻¹"}, {"measurement": "kobs", "setting": "Epac2^Δ280; 0.6 μM compound", "result": 0.00184, "unit": "s⁻¹"}, {"measurement": "kobs", "setting": "Epac2^Δ280; 0.7 μM compound", "result": 0.00188, "unit": "s⁻¹"}, {"measurement": "AC50", "setting": "Epac2^Δ280; Epac2^Δ280", "result": 100, "unit": "nM"}, {"measurement": "Rel. kmax", "setting": "Epac2^Δ280; Epac2^Δ280, maximal activity relative to cAMP", "result": 7.7}, {"measurement": "Kact compared to cAMP (times higher / affinity reduced)", "setting": "PKA-IIα; PKA-IIα", "result": "three to eight times higher"}, {"measurement": "EC50", "setting": "PKA-IIα; PKA-IIα, read-out: Kact", "result": 270, "unit": "nM"}, {"measurement": "A (PKA activity)", "setting": "PKA-IIα; concentration 1 μM", "result": "1.74E+01", "unit": "U/mg"}, {"measurement": "A (PKA activity)", "setting": "PKA-IIα; concentration 1.00E+01 μM", "result": "2.30E+01", "unit": "U/mg"}, {"measurement": "A (PKA activity)", "setting": "PKA-IIα; concentration 1.00E-01 μM", "result": "1.09E+01", "unit": "U/mg"}, {"measurement": "A (PKA activity)", "setting": "PKA-IIα; concentration 1.00E-02 μM", "result": 5.815, "unit": "U/mg"}, {"measurement": "A (PKA activity)", "setting": "PKA-IIα; concentration 1.00E-03 μM", "result": 5.193, "unit": "U/mg"}, {"measurement": "A (PKA activity)", "setting": "PKA-IIα; concentration 1.00E-04 μM", "result": 4.739, "unit": "U/mg"}, {"measurement": "A (PKA activity)", "setting": "PKA-IIα; concentration 1.00E-05 μM", "result": 3.782, "unit": "U/mg"}, {"measurement": "A (PKA activity)", "setting": "PKA-IIα; concentration 2.50E+02 μM", "result": "2.28E+01", "unit": "U/mg"}, {"measurement": "A (PKA activity)", "setting": "PKA-IIα; concentration 2.50E-01 μM", "result": "1.40E+01", "unit": "U/mg"}, {"measurement": "A (PKA activity)", "setting": "PKA-IIα; concentration 2.50E-02 μM", "result": 8.017, "unit": "U/mg"}]}
